These results are taken from patent publication US20030050306A1, “Novel heteroaryl derivatives, their preparation and use” (H. Lundbeck A/S, priority 1999, published 2003).

Experiment [1] addresses T1, human cloned dopamine D4.2 receptors (Homo sapiens, UniProt P21917, DEL265-296).
T1 construct: expressed in transfected cells; host or cells: CHO cells
T1 sequence (P21917 with tags, fused parts or gaps DEL265-296): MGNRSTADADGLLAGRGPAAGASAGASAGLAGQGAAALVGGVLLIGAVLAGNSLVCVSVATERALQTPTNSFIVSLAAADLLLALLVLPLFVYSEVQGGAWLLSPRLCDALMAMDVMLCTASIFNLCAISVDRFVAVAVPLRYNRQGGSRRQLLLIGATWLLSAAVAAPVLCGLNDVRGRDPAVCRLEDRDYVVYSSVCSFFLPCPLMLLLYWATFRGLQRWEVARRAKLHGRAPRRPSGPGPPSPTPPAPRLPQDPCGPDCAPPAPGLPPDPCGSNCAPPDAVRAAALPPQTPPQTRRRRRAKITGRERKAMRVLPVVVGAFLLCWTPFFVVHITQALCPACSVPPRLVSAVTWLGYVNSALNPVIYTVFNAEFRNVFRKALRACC
Description: Inhibition of the binding of 3H-YM-09151-2 to human dopamine D4 receptors. Conditions: human cloned dopamine D4.2 receptors in CHO-cells; for inhibition at 0.05 µM: at 50 nM. As for the experimental part:
The compounds of the invention have also been tested for their affinity to dopamine D4 receptors in the following test.
Inhibition of the Binding of ^3H-YM-09151-2 to Human Dopamine D4 Receptors
By this method the inhibition by drugs of the binding of [^3H]YM-09151-2 (0.06 nM) to membranes of human cloned dopamine D4.2 receptors expressed in CHO-cells is determined in vitro. Method modified from NEN Life Science Products, Inc., technical data certificate PC2533-10/96.

Experiment [2] addresses T2, cloned human 5-HT1A receptors (Homo sapiens, UniProt P08908).
T2 construct: expressed in transfected cells; host or cells: HeLa cells (HA7)
T2 sequence (P08908 1-422): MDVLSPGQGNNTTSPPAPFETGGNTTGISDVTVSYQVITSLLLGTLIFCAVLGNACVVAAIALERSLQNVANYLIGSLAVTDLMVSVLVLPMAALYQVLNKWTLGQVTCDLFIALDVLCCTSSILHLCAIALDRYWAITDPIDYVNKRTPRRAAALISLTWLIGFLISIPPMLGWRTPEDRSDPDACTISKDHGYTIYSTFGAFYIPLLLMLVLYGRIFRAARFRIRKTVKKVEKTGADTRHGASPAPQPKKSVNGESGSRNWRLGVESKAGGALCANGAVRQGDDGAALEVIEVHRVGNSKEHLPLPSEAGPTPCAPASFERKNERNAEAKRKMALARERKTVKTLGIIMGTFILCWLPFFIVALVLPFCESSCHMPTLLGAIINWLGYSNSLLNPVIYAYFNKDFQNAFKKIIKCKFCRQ
Description: Inhibition of 3H-5-CT binding to human 5-HT1A receptors. Particulars: cloned human 5-HT1A receptors in HeLa cells (HA7); for inhibition at 0.1 µM: at 100 nM. As for the experimental part:
The affinity of the compounds of the invention to 5-HT1A receptors was determined by measuring the inhibition of binding of a radioactive ligand at 5-HT1A receptors as described in the following test:
Inhibition of ^3H-5-CT Binding to Human 5-HT1A Receptors
By this method the inhibition by drugs of the binding of the 5-HT1A agonist ^3H-5-carboxamido tryptamine (3H-5-CT) to cloned human 5-HT1A receptors stably expressed in transfected HeLa cells (HA7) (Fargin, A. et al, J. Biol. Chem., 1989, 264, 14848) is determined in vitro. The assay was performed as a modification of the method described by Harrington, M. A. et at, J. Pharmacol. Exp. Ther., 1994, 268, 1098. Human 5-HT1A receptors (40 μg of cell homogenate) were incubated for 15 minutes at 37° C. in 50 mM Tris buffer at pH 7.7 in the presence of ^3H-5-CT. Non-specific binding was determined by including 10 μM of metergoline. The reaction was terminated by rapid filtration through Unifilter GF/B filters on a Tomtec Cell Harvester. Filters were counted in a Packard Top Counter.

`N#Cc1cccc(OCCCCN2CCN(c3cccc4c3OCCO4)CC2)c1` [Compound 7bh, 3-{4-[4-(2,3-Dihydro-benzo[1,4]dioxin-5-yl)-piperazin-1-yl]-butoxy}-benzonitrile]: in experiment [1], the inhibition (usually the drop in the measured response relative to a control, in per cent) at 0.05 µM worked out at 84%. For the same compound, in experiment [2], the inhibition at 0.1 µM came to 95%.

As to `Clc1ccccc1OCCCN1CCN(c2cccc3c2OCCO3)CC1` [Compound 1a, 1-[3-(2-Chloro-phenoxy)-propyl]-4-(2,3-dihydro-benzo[1,4]dioxin-5-yl)-piperazine], the half-inhibitory concentration (IC50) (usually the point on the concentration scale where inhibition reaches its midpoint) in experiment [1] came out at 1.1 nM; in experiment [2], 10 nM.

Turning to `Fc1cc(F)c(OCCCN2CCN(c3cccc4c3OCCO4)CC2)c(Br)c1` [Compound 5bo, 1-[3-(2-Bromo-4,6-difluoro-phenoxy)-propyl]-4-(2,3-dihydro-benzo[1,4]dioxin-5-yl)-piperazine], the 50% inhibitory concentration (IC50) in experiment [1] is 2.4 nM; in experiment [2], 1.7 nM.

Consider `Clc1ccc(SCCN2CCN(c3cccc4c3OCCO4)CC2)cc1Cl` [Compound 3a, 1-[2-(3,4-Dichloro-phenylsulfanyl)-ethyl]-4-(2,3-dihydro-benzof[, 4]dioxin-5-yl)-piperazine], for which the IC50 in experiment [1] is 5.4 nM; in experiment [2], 76 nM.

In the case of `Cc1cccc(Cl)c1SCCCCN1CCN(c2cccc3c2OCCO3)CC1` [Compound 5av, 1-[4-(2-Chloro-6-methyl-phenylsulfanyl)-butyl]-4-(2,3-dihydro-benzo[1,4]dioxin-5-yl)-piperazine], the IC50 is 1.4 nM in experiment [1] and 5.1 nM in experiment [2].

As for `Clc1cccc(SCCCN2CCN(c3cccc4c3OCCO4)CC2)c1` [Compound 7az, 1-[3-(3-Chloro-phenylsulfanyl)-propyl]-4-(2,3-dihydro-benzo[1,4]dioxin-5-yl)-piperazine], the inhibition at 0.05 µM in experiment [1] was found to be 92%. Further, the inhibition at 0.1 µM in experiment [2] worked out at 100%.

With `Cc1cc(F)ccc1OCCCN1CCN(c2ccc(C#N)c3c2OCCO3)CC1` [Compound 6a, 8-{4-[3-(4-Fluoro-2-methyl-phenoxy)-propyl]-piperazin-1-yl}-2,3-dihydro-benzo[1,4]dioxine-5-carbonitrile], the values for the IC50 in experiment [1] and in experiment [2] were 6.9 nM and 120 nM, respectively.

Turning to `COc1ccc(SCCN2CCN(c3cccc4c3OCCO4)CC2)cc1OC` [Compound 7bg, 1-(2,3-Dihydro-benzo[1,4]dioxin-5-yl)-4-[2-(3,4-dimethoxy-phenylsulfanyl)-ethyl]-piperazine], the inhibition at 0.05 µM in experiment [1] was 64%. In addition, in experiment [2], the inhibition at 0.1 µM is 81%.

`Cc1cccc(Cl)c1SCCCCN1CCN(c2cc(Cl)cc3c2OC(C)(C)C3)CC1` [Compound 5ax, 1-(5-Chloro-2,2-dimethyl-2,3-dihydro-benzofuran-7-yl)-4-[4-(2-chloro-6-methyl-phenylsulfanyl)-butyl]-piperazine] showed an IC50 in experiment [1] of 23 nM. In addition, the inhibition at 0.1 µM in experiment [2] was determined as 33%.

As to `Fc1cc(Br)c(OCCCN2CCN(c3cccc4c3OCCO4)CC2)c(Br)c1` [Compound 5aj, 1-[3-(2,6-Dibromo-4-fluoro-phenoxy)-propyl]-4-(2,3-dihydro-benzo[1,4]dioxin-5-yl)-piperazine], the concentration for half-maximal inhibition (IC50) in experiment [1] came to 13 nM; in experiment [2], 3.4 nM.

For the compound `Fc1ccccc1SCCCN1CCN(c2cccc3c2OCCO3)CC1` [Compound 7ba, 1-(2,3-Dihydro-benzo[1,4]dioxin-5-yl)-4-[3-(2-fluoro-phenylsulfanyl)-propyl]-piperazine], the inhibition at 0.05 µM in experiment [1] worked out at 84%. Moreover, the inhibition at 0.1 µM in experiment [2] was 97%.

In turn, `CC1(C)Cc2cc(Cl)cc(N3CCN(CCCSc4c(Cl)cccc4Cl)CC3)c2O1` [Compound 5az, 1-(5-Chloro-2,2-dimethyl-2,3-dihydro-benzofuran-7-yl)-4-[3-(2,6-dichloro-phenylsulfanyl)-propyl]-piperazine] came in with a 50% inhibitory concentration (IC50) in experiment [1] of 9.9 nM. Further, the inhibition at 0.1 µM in experiment [2] amounted to 18%.

With `Fc1cc(Br)cc(F)c1OCCCCN1CCN(c2cccc3ccsc23)CC1` [Compound 5cc, 1-Benzo[b]thiophen-7-yl-4-[4-(4-bromo-2,6-difluoro-phenoxy)-butyl]-piperazine], the concentration for half-maximal inhibition (IC50) was determined as 34 nM in experiment [1] and 9.7 nM in experiment [2].

For the compound `Cc1ccc(SCCCN2CCN(c3cccc4c3OCCO4)CC2)c(C)c1` [Compound 7aj, 1-(2,3-Dihydro-benzo[1,4]dioxin-5-yl)-4-[3-(2,4-dimethyl-phenylsulfanyl)-propyl]-piperazine], the inhibition at 0.05 µM in experiment [1] was 84%. Besides, in experiment [2], the inhibition at 0.1 µM worked out at 99%.

Turning to `Cc1ccc(SCCN2CCN(c3cccc4c3OCCO4)CC2)c(C)c1` [Compound 7ad, 1-(2,3-Dihydro-benzo[1,4]dioxin-5-yl)-4-[2-(2,4-dimethyl-phenylsulfanyl)-ethyl]-piperazine], the inhibition at 0.05 µM in experiment [1] was determined as 91%. Also, the IC50 in experiment [2] was 21 nM.

Take `CC(C)c1ccccc1SCCCCN1CCN(c2cccc3c2OCCO3)CC1` [Compound 7bn, 1-(2,3-Dihydro-benzo[1,4]dioxin-5-yl)-4-[4-(2-isopropyl-phenylsulfanyl)-butyl]-piperazine]: the inhibition at 0.05 µM in experiment [1] came to 93%. The inhibition at 0.1 µM in experiment [2] stood at 93%.

On to `Fc1ccc(OCCCCN2CCN(c3cccc4c3OCCO4)CC2)c(Br)c1` [Compound 5be, 1-[4-(2-Bromo-4-fluoro-phenoxy)-butyl]-4-(2,3-dihydro-benzo[1,4]dioxin-5-yl)-piperazine], for which the IC50 in experiment [1] is 1.2 nM; in experiment [2], 8 nM.

With `c1ccc(SCCCN2CCN(c3cccc4c3OCCO4)CC2)cc1` [Compound 4a, 1-(2,3-Dihydro-benzo[1,4]dioxin-5-yl)-4-(3-phenylsulfanyl-propyl)-piperazine], the half-inhibitory concentration (IC50) stood at 1.3 nM in experiment [1] and 2.8 nM in experiment [2].

In the case of `Clc1cccc(SCCCN2CCN(c3cccc4c3OCCO4)CC2)c1Cl` [Compound 7al, 1-[3-(2,3-Dichloro-phenylsulfanyl)-propyl]-4-(2,3-dihydro-benzo[1,4]dioxin-5-yl)-piperazine], the inhibition at 0.05 µM in experiment [1] was found to be 97%. Besides, the inhibition at 0.1 µM in experiment [2] amounted to 98%.

For the compound “1-[2-(Bromo-trifluoromethyl-phenylsulfanyl)-ethyl]-4-(2,3-dihydro-benzo[1,4]dioxin-5-yl)-piperazine [Compound 3c]”, the values for the 50% inhibitory concentration (IC50) in experiment [1] and in experiment [2] were 35 nM and 11 nM, respectively.

For `Clc1ccccc1SCCN1CCN(c2cccc3c2OCCO3)CC1` [Compound 7av, 1-[2-(2-Chloro-phenylsulfanyl)-ethyl]-4-(2,3-dihydro-benzo[1,4]dioxin-5-yl)-piperazine], the inhibition at 0.05 µM in experiment [1] was 75%. Also, the inhibition at 0.1 µM in experiment [2] came to 90%.

Take `Fc1cc(F)c(OCCCN2CCN(c3cccc4c3OCCO4)CC2)c(F)c1` [Compound 1c, 1-(2,3-Dihydro-benzo[1,4]dioxin-5-yl)-4-[3-(2,4,6-trifluoro-phenoxy)-propyl]-piperazine]: the IC50 came out at 13 nM in experiment [1] and 2 nM in experiment [2].

As to `CC1(C)Cc2cc(Cl)cc(N3CCN(CCCCOc4ccc(F)cc4Cl)CC3)c2O1` [Compound 5bd, 1-(5-Chloro-2,2-dimethyl-2,3-dihydro-benzofuran-7-yl)-4-[4-(2-chloro-4-fluoro-phenoxy)-butyl]-piperazine], the concentration for half-maximal inhibition (IC50) came to 6.5 nM in experiment [1] and 52 nM in experiment [2].

Consider `Brc1cccc(SCCCN2CCN(c3cccc4c3OCCO4)CC2)c1` [Compound 7bl, 1-(2,3-Dihydro-benzo[1,4]dioxin-5-yl)-4-[3-(3-bromo-phenylsulfanyl)-propyl]-piperazine], for which the inhibition at 0.05 µM in experiment [1] came to 102%. In addition, in experiment [2], the inhibition at 0.1 µM turned out to be 95%.
